Reference: patent US10941157B2, “Pesticidal compositions and uses thereof” (Gilead Apollo, LLC, priority 2015, dated 2021)
Converted amounts (≈) assume the structure as drawn. Like-named read-outs stand apart in the source and are kept apart here.

Key:
Botrtyis cinerea (Bc) = experiment: In vitro pathogen growth inhibition assay, Bc; format: cell-based; settings: 48 h, ≥90% growth inhibition; 48 hours; vs 2% DMSO control; read-out: Compound Concentration (ppm) sufficient for ≥90% inhibition of Bc
Method in brief: (§1)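 Spores in 17% V8 liquid medium, or 1.5 mm Rs mycelial plugs in ¼ PDB, incubated with compound; final concentration checked by OD600 for precipitation. OD readings at 24 and 48 h, blank-subtracted, plus visual ratings; value is concentration giving ≥90% growth inhibition.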

Diplodia maydis (Dm) = experiment: In vitro pathogen growth inhibition assay, Dm; format: cell-based; settings: Stenocarpella maydis, 48 h, ≥90% growth inhibition; 48 hours; vs 2% DMSO control; read-out: Compound Concentration (ppm) sufficient for ≥90% inhibition of Dm
Method in brief: (§2)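 Value reported is the compound concentration reaching ≥90% growth inhibition, from OD readings at 24 and 48 h after blank subtraction, confirmed visually. Inoculum was spores diluted in 17% V8 medium, except Rs, using 1.5 mm mycelial plugs in ¼ PDB; actual compound concentration corrected via OD600.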

[1] = test system: Collectotrichum graminicola (Cg); experiment: In vitro pathogen growth inhibition assay, Cg; format: cell-based; settings: 48 h, ≥90% growth inhibition; 48 hours; vs 2% DMSO control; read-out: Compound Concentration (ppm) sufficient for ≥90% inhibition of Cg
Method in brief: as §1

[2] = test system: Fusarium virguliforme (Fv); experiment: In vitro pathogen growth inhibition assay, Fv; format: cell-based; settings: ≥90% growth inhibition, 48 hours, vs 2% DMSO control, read-out: Compound Concentration (ppm) sufficient for ≥90% inhibition of Fv
Method in brief: as §2

Phakopsora pachyrhizi = experiment: Foliar protection test for Asian soybean rust control; format: in vivo; settings: foliar application to soybean (Glycine max AG4832), percent disease area evaluated 14 days later
[3] = test system: Mycosphaerella graminicola (synthetic Septoria tritici); experiment: Foliar protection test for wheat septoria leaf blotch control; format: in vivo; settings: foliar spray on Triticum aestivum cv. WinterHawk, inoculated 1 hour after treatment, evaluated 16 days later
Rhizoctonia solani (Rs) = experiment: In vitro pathogen growth inhibition assay, Rs (mycelial plugs); format: cell-based; settings: Rhizoctonia solani, 48 h, ≥90% growth inhibition; mycelial plugs; 48 hours; vs 2% DMSO control; read-out: Compound Concentration (ppm) sufficient for ≥90% inhibition of Rs
Method in brief: as §2

[4] = test system: Fusarium moniliforme (Fm); experiment: In vitro pathogen growth inhibition assay, Fm; format: cell-based; settings: Fusarium verticillioides; ≥90% growth inhibition; 48 hours; vs 2% DMSO control; read-out: Compound Concentration (ppm) sufficient for ≥90% inhibition of Fm
Method in brief: as §1

Fusarium graminearum [5] = format: in vivo; settings: spray on flowering Triticum aestivum cv. Samson, inoculated 24 hours after treatment, evaluated 14 days later
Fusarium graminearum [6] = format: in vivo; settings: corn from treated seeds, 0.025 mg/seed, F. graminearum inoculated
Septoria tritici (St) = experiment: In vitro pathogen growth inhibition assay, St; format: cell-based; settings: Zymoseptoria tritici, 48 h, ≥90% growth inhibition; 48 hours; vs 2% DMSO control; read-out: Compound Concentration (ppm) sufficient for ≥90% inhibition of St
Method in brief: as §1

Puccinia triticina = experiment: Foliar protection test for wheat leaf rust control; format: in vivo; settings: foliar application to wheat (Triticum aestivum cv. Winterhawk), evaluated 10 days later
[7] = test system: Phytophthora capsici (Pc); experiment: In vitro pathogen growth inhibition assay, Pc; format: cell-based; settings: 48 h, ≥90% growth inhibition, 48 hours, vs 2% DMSO control, read-out: Compound Concentration (ppm) sufficient for ≥90% inhibition of Pc
Method in brief: as §2

[8] = test system: Blumeria graminis f. sp. hordei; experiment: Foliar protection test for barley powdery mildew control; format: in vivo; settings: foliar spray on Hordeum vulgare cv. Perry, inoculated 24 hours after treatment, evaluated 7 days later
Method in brief: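 Six-day-old barley (cv. Perry) sprayed to wetness on both leaf sides; 24 h later inoculated by shaking spores from infected stock plants. Kept at 20 to 22° C, 70% relative humidity; mildew colonization assessed 7 days later.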

Sphaerotheca fuliginea = experiment: Foliar protection for cucumber powdery mildew control; format: in vivo; settings: foliar spray on Cucumis sativus cv. Straight Eight, inoculated 24 hours after treatment, evaluated 7 days later
Method in brief: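 Cucumber plants (cv. Straight Eight, 10 days old) sprayed to wetness on both leaf surfaces, then inoculated 24 h later by shaking sporulating stock plants over them. Held at 23–27 °C, 16 h light, 60% RH. Mildew colonization scored 7 days after inoculation, at compound concentrations of 10 ppm or lower.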

Structure (SMILES)	IC90 (Botrtyis cinerea (Bc)) [µg/mL]	IC90 (Diplodia maydis (Dm)) [µg/mL]	IC90 [1] [µg/mL]	IC90 [2] [µg/mL]	Asian Soybean Rust Control at a compound concentration of 25 ppm or lower (Phakopsora pachyrhizi)	Septoria Leaf Blotch Control at a compound concentration of 25 ppm or lower [3]	IC90 (Rhizoctonia solani (Rs)) [µg/mL]	IC90 [4] [µg/mL]	Wheat Fusarium Head Blight Control at a compound concentration of 25 ppm or lower (Fusarium graminearum [5])	Plant Height (Fusarium graminearum [6]; Table 12) [cm]	IC90 (Septoria tritici (St)) [µg/mL]	Wheat Leaf Rust Control at a compound concentration of 10 ppm or lower (Puccinia triticina)	IC90 [7] [µg/mL]	Barley Powdery Mildew Control at a compound concentration of 10 ppm or lower [8]	Cucumber Powdery Mildew Control at a compound concentration of 10 ppm or lower (Sphaerotheca fuliginea)	Plant Height (Fusarium graminearum [6]; Table 13) [cm]
COc1ccc(F)cc1[C@@H](O)Cn1c(=O)n(C(C)(C)C(=O)NC(C)C)c(=O)c2c(C)c(-n3nccn3)sc21 [Compound I-185, (R)-2-(1-(2-(5-fluoro-2-methoxyphenyl)-2-hydroxyethyl)-5-methyl-2,4-dioxo-6-(2H-1,2,3-triazol-2-yl)-1,4-dihydrothieno[2,3-d]pyrimidin-3 (2H)-yl)-N-isopropyl-2-methylpropanamide]	0.4 (≈ 0.734 µM)	0.4 (≈ 0.734 µM)	0.4 (≈ 0.734 µM)	0.08 (≈ 0.147 µM)	AA (≥85% control of Asian soybean rust)	AA (≥85% control of wheat septoria leaf blotch)	0.08 (≈ 0.147 µM)	0.08 (≈ 0.147 µM)	A (from 70% to 84% control of wheat fusarium head blight)	45.66	≥ 50	AA (≥85% control of wheat leaf rust)	≥ 10	AA (≥85% control of barley powdery mildew)	AA (≥85% control of cucumber powdery mildew)	–
COc1ccc(F)cc1[C@H](Cn1c(=O)n([C@H](C)C(=O)N(C)C(C)C)c(=O)c2c(C)c(-n3nccn3)sc21)OCCC#N [Compound I-205, (R)-2-(1-((R)-2-(2-cyanoethoxy)-2-(5-fluoro-2-methoxyphenyl)ethyl)-5-methyl-2,4-dioxo-6-(2H-1,2,3-triazol-2-yl)-1,4-dihydrothieno[2,3-d]pyrimidin-3 (2H)-yl)-N-isopropyl-N-methylpropanamide]	0.4 (≈ 0.669 µM)	≥ 0.08	0.4 (≈ 0.669 µM)	0.4 (≈ 0.669 µM)	AA (≥85% control of Asian soybean rust)	AA (≥85% control of wheat septoria leaf blotch)	0.08 (≈ 0.134 µM)	0.4 (≈ 0.669 µM)	C (from 25 to 49% control of wheat fusarium head blight)	–	> 50	AA (≥85% control of wheat leaf rust)	> 50	AA (≥85% control of barley powdery mildew)	AA (≥85% control of cucumber powdery mildew)	41.47
CCNC(=O)C(C)(C)n1c(=O)c2c(C)c(-n3nccn3)sc2n(C[C@H](OCCC#N)c2cc(F)ccc2OC)c1=O [Compound I-206, (R)-2-(1-(2-(2-cyanoethoxy)-2-(5-fluoro-2-methoxyphenyl)ethyl)-5-methyl-2,4-dioxo-6-(2H-1,2,3-triazol-2-yl)-1,4-dihydrothieno[2,3-d]pyrimidin-3 (2H)-yl)-N-ethyl-2-methylpropanamide]	0.4 (≈ 0.685 µM)	0.4 (≈ 0.685 µM)	0.4 (≈ 0.685 µM)	0.4 (≈ 0.685 µM)	AA (≥85% control of Asian soybean rust)	AA (≥85% control of wheat septoria leaf blotch)	0.08 (≈ 0.137 µM)	0.08 (≈ 0.137 µM)	B (from 50 to 69% control of wheat fusarium head blight)	–	> 50	AA (≥85% control of wheat leaf rust)	> 50	AA (≥85% control of barley powdery mildew)	AA (≥85% control of cucumber powdery mildew)	42.72
COc1ccc(F)cc1[C@H](Cn1c(=O)n([C@H](C)C(=O)NC(C)C)c(=O)c2c(C)c(-n3nccn3)sc21)OCC(C)(C)C#N [Compound I-253, (R)-2-(1-((R)-2-(2-cyano-2-methylpropoxy)-2-(5-fluoro-2-methoxyphenyl)ethyl)-5-methyl-2,4-dioxo-6-(2H-1,2,3-triazol-2-yl)-1,4-dihydrothieno[2,3-d]pyrimidin-3 (2H)-yl)-N-isopropylpropanamide]	0.4 (≈ 0.654 µM)	0.4 (≈ 0.654 µM)	0.4 (≈ 0.654 µM)	0.4 (≈ 0.654 µM)	A (from 70% to 84% control of Asian soybean rust)	AA (≥85% control of wheat septoria leaf blotch)	0.08 (≈ 0.131 µM)	0.08 (≈ 0.131 µM)	B (from 50 to 69% control of wheat fusarium head blight)	–	≥ 2	AA (≥85% control of wheat leaf rust)	≥ 50	A (from 70% to 84% control of barley powdery mildew)	AA (≥85% control of cucumber powdery mildew)	37.81
